One test deals with sandbur. The test is described as follows: Test F preemergence. The class given is in vivo, Cenchrus echinatus. The settings on record: 21 days, scale 0 to 100. From the text:
(§1) Seeds of plant species selected from bermudagrass (Cynodon dactylon), surinam grass (Brachiaria decumbens), large (Lg) crabgrass (Digitaria sanguinalis), crabgrass, naked (naked crabgrass, Digitaria nuda), foxtail, green (green foxtail, Setaria viridis), johnsongrass (Sorghum halepense), kochia (Kochia scoparia), morningglory (pitted morningglory, Ipomoea lacunosa), nutsedge, purple (purple nutsedge, Cyperus rotundus), ragweed (common ragweed, Ambrosia elatior), mustard, black (black mustard, Brassica nigra), guineagrass (Panicum maximum), dallisgrass (Paspalum dilatatum), barnyardgrass (Echinochloa crus-galli), sandbur (southern sandbur, Cenchrus echinatus), sowthistle (common sowthistle, Sonchus oleraceous), Italian ryegrass (Lolium multiflorum), signalgrass (broadleaf signalgrass, Brachiaria platyphylla), dayflower (Virginia (VA) dayflower, Commelina virginica), bluegrass (annual bluegrass, Poa annua), quackgrass (Elytrigia repens), mallow (common mallow, Malva sylvestris), buckwheat, wild (wild buckwheat, Polygonum convolvulus), leafy spurge (Euphorbia esula), chickweed (common chickweed, Stellaria media), wild poinsettia (Euphorbia heterophylla), and pigweed (Amaranthus retroflexus) were planted into a blend of loam soil and sand and treated preemergence with test chemicals formulated in a non-phytotoxic solvent mixture which included a surfactant.
(§2) Treated plants and controls were maintained in a greenhouse for 21 days, after which time all species were compared to controls and visually evaluated. Plant response ratings, summarized in Table F, are based on a scale of 0 to 100 where 0 is no effect and 100 is complete control. A dash (-) response means no test result.

In another test the test system is bluegrass. As to the kind of experiment: Test F preemergence. The class given is in vivo, Poa annua. The settings on record: 21 days, scale 0 to 100.
Text: as §1, §2

A further test relates to guineagrass. As to the kind of experiment: Test F preemergence. The class given is in vivo, Panicum maximum. The settings on record: 21 days, scale 0 to 100.
Text: as §1, §2

Test [1] has as its system morningglory (pitted morningglory). As to the kind of experiment: Test F preemergence. The class given is in vivo, Ipomoea lacunosa. Conditions: 21 days, scale 0 to 100.
Text: as §1, §2

The next test has as its system green foxtail. The test is described as follows: Test D preemergence. The class given is in vivo, Setaria viridis. Conditions: for pest or weed control at 16 g/ha / pest or weed control at 31 g/ha / pest or weed control at 62 g/ha / pest or weed control at 125 g/ha: Setaria viridis, pre-emergence; for pest or weed control at 16 g/ha: read-out: Plant response rating, Foxtail, Green; for pest or weed control at 31 g/ha / pest or weed control at 62 g/ha / pest or weed control at 125 g/ha: scale 0-100, read-out: Plant response rating, Foxtail, Green. From the text:
(§3) Seeds of plant species selected from bluegrass (annual bluegrass, Poa annua), blackgrass (Alopecurus myosuroides), canarygrass (littleseed canarygrass, Phalaris minor), chickweed (common chickweed, Stellaria media), galium (catchweed bedstraw, Galium aparine), bromegrass, downy (downy bromegrass, Bromus tectorum), field poppy (Papaver rhoeas), field violet (Viola arvensis), green foxtail (Setaria viridis), deadnettle (henbit deadnettle, Lamium amplexicaule), Italian ryegrass (Lolium multiflorum), kochia (Kochia scoparia), lambsquarters (Chenopodium album), oilseed rape (Brassica napus), pigweed (Amaranthus retroflexus), chamomile (scentless chamomile, Matricaria inodora), Russian thistle (Salsola kali), speedwell (bird's-eye speedwell, Veronica persica), spring barley (Hordeum vulgare), spring wheat (Triticum aestivum), wild buckwheat (Polygonum convolvulus), wild mustard (Sinapis arvensis), wild oat (Avena fatua), wild radish (Raphanus raphanistrum), windgrass (Apera spica-venti), winter barley (Hordeum vulgare), and winter wheat (Triticum aestivum) were planted into a silt loam soil and treated preemergence with test chemicals formulated in a non-phytotoxic solvent mixture which included a surfactant.
(§4) At the same time, these species were planted in pots containing Redi-Earth® planting medium (Scotts Company, 14111 Scottslawn Road, Marysville, Ohio 43041) comprising spaghnum peat moss, vermiculite, wetting agent and starter nutrients and treated with postemergence applications of the test chemicals formulated in the same manner. Plants ranged in height from 2 to 18 cm (1- to 4-leaf stage). Treated plants and controls were maintained in a controlled growth environment for 7 to 21 days after which time all species were compared to controls and visually evaluated. Plant response ratings, summarized in Table D, are based on a scale of 0 to 100 where 0 is no effect and 100 is complete control. A dash (-) response means no test result.

A further test deals with spring barley. As to the kind of experiment: Test D preemergence. The class given is in vivo, Hordeum vulgare. Conditions: for plant injury at 16 g/ha / plant injury at 31 g/ha / plant injury at 62 g/ha / plant injury at 125 g/ha: Hordeum vulgare, pre-emergence; for plant injury at 16 g/ha: read-out: Plant response rating, Barley, Spring; for plant injury at 31 g/ha / plant injury at 62 g/ha / plant injury at 125 g/ha: scale 0-100, read-out: Plant response rating, Barley, Spring.
Text: as §3, §4

For a further test, the system named is winter barley. As to the kind of experiment: Test D preemergence. Format: in vivo, Hordeum vulgare. Conditions: for plant injury at 16 g/ha / plant injury at 31 g/ha / plant injury at 62 g/ha / plant injury at 125 g/ha: Hordeum vulgare, pre-emergence; for plant injury at 16 g/ha: read-out: Plant response rating, Barley, Winter; for plant injury at 31 g/ha / plant injury at 62 g/ha / plant injury at 125 g/ha: scale 0-100, read-out: Plant response rating, Barley, Winter.
Text: as §3, §4

[2] abbreviates: 16 g ai/ha, scale 0 (no effect) to 100 (complete control).

Each structure is given as a SMILES string.

With `N#Cc1cccc(Oc2ncc(Cl)cn2)c1-n1cc(OC(F)F)cn1` [Compound 97], the “Plant response rating, Sandbur” value in the test on sandbur (16 g ai/ha) is reported as 0; with sandbur (31 g ai/ha), 10; in the test with sandbur (62 g ai/ha), 25; in the test on sandbur (125 g ai/ha), 100; in the test on sandbur (250 g ai/ha), 100. For the same compound, the “Plant response rating, Bluegrass” value in the test with bluegrass (16 g ai/ha) stood at 5; with bluegrass (31 g ai/ha), 35; in the test on bluegrass (62 g ai/ha), 75; with bluegrass (125 g ai/ha), 98; with bluegrass (250 g ai/ha), 100. In addition, the “Plant response rating, Guineagrass” value in the test with guineagrass (16 g ai/ha), with guineagrass (31 g ai/ha), in the test on guineagrass (62 g ai/ha), in the test on guineagrass (125 g ai/ha) and in the test with guineagrass (250 g ai/ha) was 100 each time. The “Plant response rating, Morningglory” value in test [1] (16 g ai/ha) was determined as 10; in test [1] (31 g ai/ha), 60; in test [1] (62 g ai/ha) it was 90; in test [1] (125 g ai/ha) it was 98; in test [1] (250 g ai/ha), 100.

With `FCc1cccc(Oc2ncc(Cl)cn2)c1-n1cc(I)cn1` [Compound 245], the “Plant response rating, Foxtail, Green” value with green foxtail (setting [2]) was determined as 0; with green foxtail (31 g ai/ha, scale 0-100), 0; in the test on green foxtail (62 g ai/ha, scale 0-100), 0; in the test on green foxtail (125 g ai/ha, scale 0-100), 35. Besides, the “Plant response rating, Barley, Spring” value with spring barley (setting [2]) is recorded as 0; with spring barley (31 g ai/ha, scale 0-100), 5; in the test with spring barley (62 g ai/ha, scale 0-100) it was 15; with spring barley (125 g ai/ha, scale 0-100), 35. The “Plant response rating, Barley, Winter” value amounted to 0 in the test on winter barley (setting [2]); 35 with winter barley (31 g ai/ha, scale 0-100); 25 with winter barley (62 g ai/ha, scale 0-100); 40 with winter barley (125 g ai/ha, scale 0-100).

As for `N#Cc1cccc(Oc2ncc(Cl)cn2)c1-n1cc(OCC(F)(F)F)cn1` [Compound 274, 3-[(5-chloro-2-pyrimidinyl)oxy]-2-[4-(2,2,2-trifluoroethoxy)-1H-pyrazol-1-yl]benzonitrile], in the test on green foxtail (setting [2]), the pest or weed control at 16 g/ha was determined as 15%. For the same compound, the pest or weed control at 31 g/ha in the test on green foxtail (31 g ai/ha) came to 75%. Also, the pest or weed control at 62 g/ha with green foxtail (62 g ai/ha) was 100%. For the same compound, the pest or weed control at 125 g/ha in the test with green foxtail (125 g ai/ha) was 100%. Besides, the “Plant response rating, Sandbur” value in the test on sandbur (16 g ai/ha) is given as 5; in the test with sandbur (31 g ai/ha), 20; with sandbur (62 g ai/ha) it was 70; with sandbur (125 g ai/ha), 95; in the test with sandbur (250 g ai/ha) it was 100. For the same compound, the plant injury at 16 g/ha with spring barley (setting [2]) and in the test on winter barley (setting [2]) was 0% in each case. Also, the plant injury at 31 g/ha in the test on spring barley (31 g ai/ha) and in the test with winter barley (31 g ai/ha) was 0% each time. Moreover, the plant injury at 62 g/ha in the test on spring barley (62 g ai/ha) and in the test on winter barley (62 g ai/ha) was 10% throughout. Moreover, the results for the plant injury at 125 g/ha in the test on spring barley (125 g ai/ha) and in the test with winter barley (125 g ai/ha) were 15% and 55%, respectively. Further, the “Plant response rating, Bluegrass” value in the test with bluegrass (16 g ai/ha) was 0; in the test with bluegrass (31 g ai/ha), 20; with bluegrass (62 g ai/ha), 50; with bluegrass (125 g ai/ha), 85; in the test on bluegrass (250 g ai/ha), 100. In addition, the “Plant response rating, Guineagrass” value with guineagrass (16 g ai/ha), with guineagrass (31 g ai/ha), in the test with guineagrass (62 g ai/ha), in the test on guineagrass (125 g ai/ha) and in the test with guineagrass (250 g ai/ha) was 100 in each case. Further, the “Plant response rating, Morningglory” value in test [1] (16 g ai/ha) was 35; in test [1] (31 g ai/ha) it was 50; in test [1] (62 g ai/ha), 65; in test [1] (125 g ai/ha), 98; in test [1] (250 g ai/ha) it was 100.

`Fc1cccc(Oc2ncc(Cl)cn2)c1-n1cc(C(F)F)nn1` [Compound 141, 5-chloro-2-[2-[4-(difluoromethyl)-1H-1,2,3-triazol-1-yl]-3-fluorophenoxy]pyrimidine]: the pest or weed control at 16 g/ha in the test on green foxtail (setting [2]) came out at 10%. The pest or weed control at 31 g/ha with green foxtail (31 g ai/ha) is 100%. Also, the pest or weed control at 62 g/ha with green foxtail (62 g ai/ha) turned out to be 100%. Also, in the test with green foxtail (125 g ai/ha), the pest or weed control at 125 g/ha was 100%. The plant injury at 16 g/ha in the test on spring barley (setting [2]) and in the test on winter barley (setting [2]) was 15% in each case. Besides, the figures for the plant injury at 31 g/ha with spring barley (31 g ai/ha) and in the test on winter barley (31 g ai/ha) were 20% and 35%, respectively. Also, the plant injury at 62 g/ha with spring barley (62 g ai/ha) and in the test on winter barley (62 g ai/ha) was 65% in each case. The plant injury at 125 g/ha in the test on spring barley (125 g ai/ha) and with winter barley (125 g ai/ha) was 90% each time.

As for `N#Cc1cccc(Oc2ncc(F)cn2)c1-n1cc(C(F)(F)F)cn1` [Compound 79, 3-[(5-fluoro-2-pyrimidinyl)oxy]-2-[4-(trifluoromethyl)-1H-pyrazol-1-yl]benzonitrile], the “Plant response rating, Sandbur” value was 10 with sandbur (16 g ai/ha); 15 in the test with sandbur (31 g ai/ha); 95 with sandbur (62 g ai/ha); 98 with sandbur (125 g ai/ha); 100 in the test on sandbur (250 g ai/ha). In addition, the “Plant response rating, Bluegrass” value with bluegrass (16 g ai/ha) is 50; with bluegrass (31 g ai/ha), 75; with bluegrass (62 g ai/ha), 98; in the test on bluegrass (125 g ai/ha) it was 100; in the test on bluegrass (250 g ai/ha), 100. The “Plant response rating, Guineagrass” value in the test on guineagrass (16 g ai/ha), in the test on guineagrass (31 g ai/ha), with guineagrass (62 g ai/ha), in the test with guineagrass (125 g ai/ha) and in the test with guineagrass (250 g ai/ha) was 100 throughout. Further, the “Plant response rating, Morningglory” value in test [1] (16 g ai/ha) worked out at 98; in test [1] (31 g ai/ha), 100; in test [1] (62 g ai/ha), 100; in test [1] (125 g ai/ha), 100; in test [1] (250 g ai/ha) it was 100.
